According to patent US20090203877A1, “X-RAY-DENSE CONJUGATE” (Eberhard-Karls-Universitaet Tuebingen Universitaetsklinkum, priority 2006, published 2009):
Entries after “also recorded” stand apart in the source; their conditions may differ.

Legend:
[1] = test system: human malignant LN18 glioma cells; test: Cell viability / cell death (annexin-V-Alexa 568 binding, propidium iodide, FACS scatter morphology); assay type: cell-based; settings: for influence on the cell viability: free compound alone, each 250 μM (FIG. 15)
Experimental: All measurements were performed on living, non-fixed cells. […] All measurements were performed on living cells. […] All measurements were performed on living cells in triplicates. […] All measurements were performed on living cells.

[2] = test system: human malignant U373 glioma cells; test: Cell viability / cell death (MTT test, propidium iodide, annexin-V-Alexa 568 binding, FACS scatter morphology); settings: 260 μM in PBS, 20 min, substance alone
Experimental: Human malignant U373-glioma cells were grown to 70% confluency in RPMI-1640 Ready Mix Medium containing L-Glutamine and 10% FBS-Gold (PAA laboratories, Pasching, Austria) at 37° C., 5% CO2 (vol/vol), in 4-well-plates (NUNC, Wiesbaden, Germany) with about 300,000 cells pro well. […] After this, the cells were washed three times with buffer and then incubated with Ready Mix Medium again. Cell viability was then assessed by the addition of methyl-thiazoyl-tetrazolium (MTT) salt (Sigma-Aldrich, Germany) at a concentration of 15 mg/ml. After 20 minutes, the production of formazan was investigated. When blue formazan granules were detected, propidium iodine (PI) was added to the medium (1 μM PI; Molecular Probes, Eugene, Oreg., USA) to detect cells with damaged cell membranes. […] Pictures were taken with a 3-CCD color video camera (MC3254P, Sony, Japan) and the Axiovision Software (Carl Zeiss, Jena, Germany). The intensity of cell fluorescence was recorded at the exposure time necessary for the production of the fluorescence images.
After imaging, Accutase™ (PAA laboratories, Pasching, Austria) was added to the wells to achieve detachment of the cells for further FACS analysis. Fluorescence was measured in a Becton Dickinson FACSCalibur. A total of 20,000 events per sample were analyzed. The investigations were performed in triplicate.
A sample of cells from each Eppendorf tube was subjected to the MTT test (described under 1.4) to determine microscopically whether the cells were viable. In vitro CT of the cell pellets was performed with a Somatom Sensation 16 (Siemens) which is used for routine clinical investigations.
Cells were incubated for 20 minutes with each of the conjugates dissolved in 0.1% DMSO/PBS at 260 μm. The cells were also incubated with TIBA and both of the non-TIBA-containing conjugates (3 and 4) separately in 0.1% DMSO/OBS at 260 μm. Both TIBA and the conjugates were dissolved in 0.1% DMSO/PBS at 260 μm for incubation due to the insolubility of TIBA (but not the conjugates) in pure PBS. As controls, the cells were incubated with PBS alone, 0.1% DMSO/PBS alone, and TIBA alone (260 μm in 0.1% DMSO/PBS).
The detection of phosphatidyl serine in the outer membrane leaflet of apoptotic cells was performed with the Annexin-V-Alexa™-568-reagent according to manufacturer's protocol (Roche Molecular Biochemicals, Indianapolis, USA). The confocal laser-scanning microscopy was performed on an inverted LSM 510 laser-scanning microscope (Carl Zeiss, Jena, Germany) (objectives: LD Achroplan 40×0.6, Plan Neofluar 20×0.50, 40×0.75). For fluorescence excitation, the 488 nm line of an argon-ion laser and the […] line of a helium-neon laser with appropriate beam splitters and barrier filters were used for FITC and Alexa respectively. Superimposed images of FITC- and Alexa-stained samples were created by overlaying coincident views. All measurements were performed on living, non-fixed cells.
Human malignant LN18 and U373 glioma cells were cultivated in four-well plates (NUNC, Wiesbaden, Germany) (about 300,000 cells per well) as described under 1.5. […] The cells were also coincubated either with CIBA, FIBA or TBPI as well as the NLS-FITC conjugate 3 (each 260 μM). As a control cells were used which were only incubated either with CIBA, FIBA or TBPI (260 μM in PBS) alone. After the incubation the cells were washed three times with PBS and in the following again incubated in Ready Mix Medium. The FITC-labelled conjugates and the Alexa-Annexin for the detection of phosphatidylserine as a signal of the cell death were localized with the confocal laser microscopy (CLSM) as in 1.6.1. All measurements were performed on living cells.

[3] = test system: human malignant LN18 glioma cells; test: Uptake/staining of cells by FITC-labelled conjugates (CLSM, FACS, semi-thin sections); assay type: cell-based; settings: for staining rate / number of stained cells: free compound co-incubated with conjugate 3 (260 μM); for cells strongly stained by FITC, FACS histogram: free unbound compound incubated in combination with conjugate 3 (260 μM)
Experimental: (§1) The human malignant U373 and LN18 glioma cells were cultivated in 75 cm^2 culture flasks (Corning Costar) (70% confluency) under the conditions as described under 1.4, detached from the flask bottom with Accutase™ (PAA Laboratories) and in the following distributed on Eppendorf tubes (Eppendorf, Hamburg, Germany) (6×10^6 per tube). The cells in the first tube serve as a control (only PBS buffer only). The cells in the other ten tubes were each incubated with benzoic acid (BA), monoiodobenzoic acid (MIBA) or diiodobenzoic acid (DIBA) alone (260 μM), conjugate 3 alone (260 μM), conjugate 3 plus either BA, MIBA or DIBA (260 μM), respectively, and the conjugates 9, 10, and 11 alone. (260 μM).
After an incubation of 20 minutes at 37° C./5% CO2 the cells were washed three times with PBS buffer and centrifuged at 800 rpm (rounds per minute) for 5 minutes. The fluorescence was measured in Becton Dickinson FACSCalibur as described under 1.4. The computer tomography was performed as described under 1.5.1. The examinations were repeated two times. […]
(§2) The FACS analysis was performed as described under 1.4. The assay was repeated two times.
(§3) For the CT and FACS examinations human LN18 and U373 glioma cells were cultivated in 75 cm^2 culture flasks (70% confluency) (conditions as described under section 1). Accutase™ (PAA Laboratories) was added to detach the cell from the culture bottom. The cells were collected and then distributed on Eppendorf-tubes (6×10^6 cells per tube). […] The next three tubes were used for the coincubation of the cells either with trichlorobenzoic acid (TCBA), trifluorobenzoic acid (TFBA) or tribromophenyl Isocyanat (TBPI) and the NLS-FITC-conjugate 3 (260 μM). As control cells were used which were only either incubated with CIBA, FIBA, TBPI (in each case 260 μM in PBS) or with PBS-buffer (native control) alone. […] The computer tomography and FACS analysis of the cell centrifuges were performed as described in 1.5.1 or 1.4, respectively for three times.
All measurements were performed on living cells.
All measurements were performed on living cells in triplicates.
A part of the cells which were stained for the FACS analysis, was fixed by paraformaldehyl with 2% Agar, dehydrogenized in ethanol, embedded in Lowicryl K4M (Polysciences, Eppelheim, Germany) and according to the information of the manufacturer UV-polymerised at room temperature. Semi-thin sections (about 0.4 μm) were cut and evaluated by means of fluorescence microscopy.

[4] = test system: human vascular endothelial cells; settings: traditional contrast media; cited from earlier work
[5] = test system: human malignant U373 glioma cells; test: Uptake/staining of cells by FITC-labelled conjugates (fluorescence microscopy, CLSM, FACS, semi-thin sections); assay type: cell-based; settings: free unbound compound incubated in combination with conjugate 3 (260 μM)
Experimental: Fluorescence was measured in a Becton Dickinson FACSCalibur. […] The investigations were performed in triplicate.
For CT and FACS human U373 glioma cells were grown under the same conditions in 75 cm^2 culture flasks (Corning Costar, Bodenheim, Germany) (70% confluency). Accutase™ (PAA laboratories, Pasching, Austria) was added to achieve detachment of the cells which were harvested and subsequently aliquoted into Eppendorf tubes (6×10^6 cells per tube). As in the investigations performed by fluorescence microscopy, the cells in the first tube served as a control (PBS only). The cells in the other tubes were incubated with 260 μM Ultravist, 260 μM TIBA in PBS and 26 μM, 260 μM and 2.6 mM conjugates 1-4 in PBS. After a 20 minute incubation period at 37° C. in an atmosphere of 5% CO2, the cells were washed three times in PBS and centrifuged at 800 rpm for 5 minutes.
The FACS analysis was performed as described under 1.4.
as §1
After an incubation of 20 minutes at 37° C./5% CO2 the cells were washed three times with PBS buffer and centrifuged at 800 rpm (rounds per minute) for 5 minutes. The fluorescence was measured in Becton Dickinson FACSCalibur as described under 1.4. The computer tomography was performed as described under 1.5.1. The examinations were repeated two times.
For the CT and FACS examinations human LN-18 and U373 glioma cells were cultivated in 75 cm^2 culture flasks (Corning Costar) (70% confluency) (conditions as described under 1.4). Accutase™ (PAA Laboratories) was added to detach the cells from the bottom of the culture flasks. The cells were collected and then distributed on Eppendorf tubes (6×10^6 cells per tube). The cells in the first two tubes serve as a control (in each case only PBS, LN18 and U373 glioma cells, native). The cells in the other tubes (in each case LN18 and U373 glioma cells) were incubated with a 260 μM or 2.6 mM solution of the conjugate 12 for 20 minutes at 37° C. and 5% CO2 and in the following washed for three times with PBS buffer and centrifuged for 5 minutes with 800 rpm (rounds per minute). For a small amount of the cells it was tested by the MMT test (see 1.4) how many of the cells were still viable. The computer tomography of the cell centrifuges was performed with the Somatom Sensation 16 (Siemens).
as §2
as §3, with “times. […]” for “times.”

[6] = 260 μM, 20 min, substance alone
[7] = free compound co-incubated with conjugate 3 (260 μM)

Compound	cell death / vitality (annexin-V-Alexa 568, propidium iodide) [1, 6]	cell death / vitality (annexin-V-Alexa 568, propidium iodide) [1, 7]	cytotoxic effects / signs of cell death [2]	staining rate / number of stained cells [3]	influence on the cell viability [1]	also measured
O=C(O)c1ccccc1 [BA, benzoic acid, reference compound]	did not result in cytotoxic effects	did not result to a considerable change	did not result in cytotoxic effects	did not result to a considerable change	–	–
O=C(O)c1cc(I)ccc1I [DIBA, 2,5-diiodobenzoic acid, reference compound]	did not result in cytotoxic effects	did not result in a binding of annexin-V-Alexa™ 568; also recorded: did not result to a considerable change	did not result in cytotoxic effects	did not result in a higher staining rate; also recorded: did not result to a considerable change	–	–
O=C(O)c1ccc(I)cc1 [MIBA, 4-monoiodobenzoic acid, reference compound]	did not result in cytotoxic effects	did not result in a binding of annexin-V-Alexa™ 568; also recorded: did not result to a considerable change	did not result in cytotoxic effects	did not result in a higher staining rate; also recorded: did not result to a considerable change	–	–
CC(=O)Nc1c(I)c(NC(C)=O)c(I)c(C(=O)O)c1I [diatrizoate]	–	–	–	–	–	concentration at which apoptosis is induced [4]: 250 mg iodine per millilitre
CN(C(=O)CC(=O)N(C)c1c(I)c(C(=O)NC(CO)C(O)CO)c(I)c(C(=O)NC(CO)C(O)CO)c1I)c1c(I)c(C(=O)NC(CO)C(O)CO)c(I)c(C(=O)NC(CO)C(O)CO)c1I (centres unmarked) [iotrolan]	–	–	–	–	–	concentration at which apoptosis is induced [4]: 250 mg iodine per millilitre
tribromophenylisocyanate [TBPI]	does not result in a cell death	without an impairment of the vitality	–	only in the staining of the nucleus in few cells	did not result in any influence on the cell viability	cell death / vitality (annexin-V-Alexa 568, propidium iodide) ([1]; free compound co-incubated with conjugate 3 (260 μM), listed as TPBI): did not result in any considerable change; staining rate / number of stained cells ([3]; listed as TPBI): did not result in any considerable change
trichlorobenzoic acid [TCBA, reference compound]	–	did not result in any considerable change	–	did not result in any considerable change	did not result in any influence on the cell viability	cell death / vitality (annexin-V-Alexa 568, propidium iodide) ([1]; free compound co-incubated with conjugate 3 (260 μM), listed as trichlorobenzoic acid): remain vital; cells strongly stained by FITC, FACS histogram [5]: no shift of the histogram peak to the right; staining rate / number of stained cells ([3]; listed as trichlorobenzoic acid): only few cells stained in their nuclei; cells strongly stained by FITC, FACS histogram [3]: no shift of the histogram peak to the right
trifluorobenzoic acid [TFBA, reference compound]	–	remain vital; also recorded: did not result in any considerable change	–	few stained cells; also recorded: did not result in any considerable change	did not result in any influence on the cell viability	cells strongly stained by FITC, FACS histogram [5]: no shift of the histogram peak to the right; cells strongly stained by FITC, FACS histogram [3]: no shift of the histogram peak to the right
